Reference: US20120296067A1, “COMPOUND CAPABLE OF BINDING TO NATURALLY OCCURRING DENATURED PROTEIN, AND METHOD FOR SCREENING FOR THE COMPOUND” (Prism BioLab Co., Ltd., priority 2010, published 2012)
“Also recorded” adds a separate entry of the source.

What was measured:
CBP = biological target: T1, CBP (Homo sapiens, UniProt Q92793); conditions: SW480 nuclear extract; FIG. 1; cited from earlier work
T1 construct: endogenous in cells; host or cells: SW480 nuclear extract

[1] = biological target: T2, CBP (1-111) (disordered sequence region) (Homo sapiens, UniProt Q92793); assay: 2D NMR analysis of 15N-labeled CBP (1-111) with ICG-001; assay type: binding; conditions: 5 μM or 15 μM ICG-001
T2 construct: NMR analysis using CBP (1-111) expressed in E. coli as a sample; made in house; host or cells: E. coli
Protocol: ^15N-labeled CBP (1^-111) (disordered sequence region) was expressed E. coli and dissolved in a buffer (NaP 25 mM·pH 6.8, NaCl 50 mM, 0.02% NaN3), and 300 μl thereof was introduced into an NMR sample tube. Moreover, a D2O solution of ICG-001 was added so as to attain an ICG^-001 concentration of 5 μM or 15 μM. Solutions prepared in this manner as NMR samples were subjected to an NMR analysis. In the NMR analysis, the measurement and analysis was carried out to give a 2D spectrum, with the X axis indicating […] data and the Y axis indicating N-15 data.

[2] = biological target: T3, CBP (1-111) (disordered sequence region) and β-catenin (Homo sapiens, UniProt Q92793); conditions: cited from earlier work
T3 construct: made in house; host or cells: E. coli

[3] = biological target: T4, p300 (1-111) (disordered sequence region) (Homo sapiens, UniProt Q09472); conditions: p300 (1-111) expressed in E. coli; cited from earlier work
T4 construct: made in house; host or cells: E. coli
T4 sequence (Q09472 1-111): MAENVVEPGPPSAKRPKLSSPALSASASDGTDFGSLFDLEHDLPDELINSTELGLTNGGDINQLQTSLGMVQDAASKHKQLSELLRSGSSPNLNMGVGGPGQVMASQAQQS

T3 sequence (Q92793 1-111): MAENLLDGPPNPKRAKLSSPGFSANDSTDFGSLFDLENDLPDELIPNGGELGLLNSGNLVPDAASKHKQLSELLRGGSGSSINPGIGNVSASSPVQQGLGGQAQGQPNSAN
T1 sequence (Q92793 whole entry): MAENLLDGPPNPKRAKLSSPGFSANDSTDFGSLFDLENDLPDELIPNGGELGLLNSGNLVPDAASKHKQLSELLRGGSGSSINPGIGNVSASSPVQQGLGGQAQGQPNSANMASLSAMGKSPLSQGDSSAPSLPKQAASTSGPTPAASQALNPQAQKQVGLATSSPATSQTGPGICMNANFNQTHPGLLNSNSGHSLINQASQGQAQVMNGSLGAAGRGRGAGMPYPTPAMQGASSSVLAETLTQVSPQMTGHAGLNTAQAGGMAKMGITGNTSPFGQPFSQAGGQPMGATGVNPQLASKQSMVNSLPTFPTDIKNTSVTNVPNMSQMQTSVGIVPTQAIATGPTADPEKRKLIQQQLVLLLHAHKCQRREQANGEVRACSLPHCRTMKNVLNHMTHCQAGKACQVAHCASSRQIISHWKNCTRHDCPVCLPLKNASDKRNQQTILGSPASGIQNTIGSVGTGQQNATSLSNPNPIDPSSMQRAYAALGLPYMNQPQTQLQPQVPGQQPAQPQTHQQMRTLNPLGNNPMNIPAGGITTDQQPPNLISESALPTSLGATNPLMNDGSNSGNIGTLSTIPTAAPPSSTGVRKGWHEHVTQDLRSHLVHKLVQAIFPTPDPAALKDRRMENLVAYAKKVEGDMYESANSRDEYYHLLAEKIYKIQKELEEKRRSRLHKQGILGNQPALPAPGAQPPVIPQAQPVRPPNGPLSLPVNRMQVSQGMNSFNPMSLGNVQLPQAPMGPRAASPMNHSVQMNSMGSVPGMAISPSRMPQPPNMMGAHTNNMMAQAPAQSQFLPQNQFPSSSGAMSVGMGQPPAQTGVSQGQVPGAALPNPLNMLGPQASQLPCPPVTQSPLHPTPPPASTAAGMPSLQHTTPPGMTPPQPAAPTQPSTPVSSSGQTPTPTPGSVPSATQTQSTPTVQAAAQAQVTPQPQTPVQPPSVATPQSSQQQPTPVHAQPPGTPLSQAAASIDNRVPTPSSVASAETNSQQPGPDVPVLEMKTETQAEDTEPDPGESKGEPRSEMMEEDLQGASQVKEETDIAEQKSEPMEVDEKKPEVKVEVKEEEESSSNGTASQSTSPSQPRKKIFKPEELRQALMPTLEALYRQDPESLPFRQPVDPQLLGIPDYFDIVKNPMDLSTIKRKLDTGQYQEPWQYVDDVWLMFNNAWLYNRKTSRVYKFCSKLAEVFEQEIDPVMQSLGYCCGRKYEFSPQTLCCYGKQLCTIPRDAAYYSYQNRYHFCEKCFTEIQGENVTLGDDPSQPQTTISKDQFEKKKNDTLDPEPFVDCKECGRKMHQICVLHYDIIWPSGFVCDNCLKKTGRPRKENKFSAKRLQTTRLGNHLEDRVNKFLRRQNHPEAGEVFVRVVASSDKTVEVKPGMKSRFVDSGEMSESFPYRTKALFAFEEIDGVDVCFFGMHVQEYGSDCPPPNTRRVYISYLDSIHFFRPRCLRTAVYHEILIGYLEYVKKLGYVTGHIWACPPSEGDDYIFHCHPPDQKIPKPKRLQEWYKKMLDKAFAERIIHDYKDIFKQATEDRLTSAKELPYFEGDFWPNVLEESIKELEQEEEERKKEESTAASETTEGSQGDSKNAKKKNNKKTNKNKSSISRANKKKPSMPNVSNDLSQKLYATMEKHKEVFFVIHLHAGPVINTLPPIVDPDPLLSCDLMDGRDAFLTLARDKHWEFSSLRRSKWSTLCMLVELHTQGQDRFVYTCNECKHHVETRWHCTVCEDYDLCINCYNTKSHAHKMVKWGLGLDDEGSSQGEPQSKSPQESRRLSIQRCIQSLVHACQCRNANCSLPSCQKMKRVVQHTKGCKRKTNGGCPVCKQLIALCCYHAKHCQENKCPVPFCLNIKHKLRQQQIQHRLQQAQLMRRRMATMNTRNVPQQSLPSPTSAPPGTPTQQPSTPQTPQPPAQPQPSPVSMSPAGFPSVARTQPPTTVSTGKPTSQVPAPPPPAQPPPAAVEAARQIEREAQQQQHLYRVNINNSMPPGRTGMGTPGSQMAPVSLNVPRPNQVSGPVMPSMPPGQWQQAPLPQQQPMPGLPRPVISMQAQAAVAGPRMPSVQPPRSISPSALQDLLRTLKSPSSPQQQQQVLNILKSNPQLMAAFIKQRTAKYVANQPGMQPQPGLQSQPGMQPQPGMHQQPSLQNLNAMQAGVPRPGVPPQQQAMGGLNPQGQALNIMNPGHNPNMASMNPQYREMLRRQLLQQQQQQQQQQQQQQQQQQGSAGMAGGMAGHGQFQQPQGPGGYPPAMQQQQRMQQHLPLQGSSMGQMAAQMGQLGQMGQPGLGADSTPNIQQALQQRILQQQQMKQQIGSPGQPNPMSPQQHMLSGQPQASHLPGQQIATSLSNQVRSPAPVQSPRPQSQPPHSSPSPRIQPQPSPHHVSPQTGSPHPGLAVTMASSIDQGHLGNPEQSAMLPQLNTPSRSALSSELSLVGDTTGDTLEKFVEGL
T2 sequence (Q92793 1-111): as the sequence (Q92793 1-111) above

- interaction between CBP1-111 and compound (NMR) [1]: clear interaction
- change of NMR peak of CBP1-111 on addition of compound ([1]; buffer pH 6.8, FIGS. 5 and 6): change of a peak
SMILES: O=C1[C@H](Cc2ccc(O)cc2)N2C(=O)CCN(C(=O)NCc3ccccc3)[C@H]2CN1Cc1cccc2ccccc12 [ICG-001]
- binding to CBP (pull-down) (CBP): binds to CBP; also recorded: bound to CBR
- separation of CBP (1-111) from β-catenin on addition of compound ([2]; CBP (1-111) and β-catenin expressed in E. coli, pulled down by immunoprecipitation): CBP (1-111) became separated
- binding to the N-terminus of CBP ([2]; CBP (1-111), FIG. 2): binds to the N-terminus sequence of CBP; also recorded: bound to the N-terminus of CBP
- binding to p300 [3]: does not binds to p300; also recorded: did not bind; also recorded: does not occur
